Measured values reported in ChEMBL document CHEMBL1144668, “Mono- and dialkyl isoprenoid bisphosphonates as geranylgeranyl diphosphate synthase inhibitors” (Bioorg Med Chem, 2008).
Active and inactive are the calls of the source. The rule behind the calls is not given here.

Tested on: K562
Assay: Inhibition of Ras farnesylation in human K562 cells after 24 hrs by Western blot
Format: functional, cell-based

SMILES | Activity
CC(C)=CCCC(C)=CCC(CC=C(C)CCC=C(C)C)(P(=O)(O)O)P(=O)(O)O | inactive
CC(C)=CCC/C(C)=C\CC(C/C=C(\C)CCC=C(C)C)(P(=O)(O)O)P(=O)(O)O | inactive
